Experimental data: patent publication US20230295197A1, “STAT5 and STAT6 Degraders and Uses Thereof” (REGENTS OF THE UNIVERSITY OF MICHICAN, priority 2022, published 2023)
Like-named read-outs stand apart in the source and are kept apart here. *1 amine or outer side, *2 acyl side, *3 side chain or, on linkers, in order; H or OH if unused. Where a SMILES comes first, the peptide text is derived from it. [ ]: non-standard residue; d: D form. The star is where a group is joined. Benzothienyl2CO(5-CF2PO3H2) = O=C(c1cc2cc(C(F)(F)P(=O)(O)O)ccc2s1)*; βAla(N-(4-Br-phenyl)) = O=C(CCN(c1ccc(Br)cc1)[*:1])[*:2]; NHBn(4-(4-Me-thiazol-5-yl)) = Cc1ncsc1-c1ccc(CN*)cc1; NH(CH2)8CO = O=C(CCCCCCCCN[*:1])[*:2]; Hyp = O=C(O)[C@@H]1C[C@@H](O)CN1; Tle = CC(C)(C)[C@H](N)C(=O)O

Biological target: T1, STAT6 (Homo sapiens, UniProt P42226)
T1 construct: endogenous in cells; host or cells: MOLM-16, KU-812, SKNO1, MB231, L1236
T1 sequence (P42226 1-847): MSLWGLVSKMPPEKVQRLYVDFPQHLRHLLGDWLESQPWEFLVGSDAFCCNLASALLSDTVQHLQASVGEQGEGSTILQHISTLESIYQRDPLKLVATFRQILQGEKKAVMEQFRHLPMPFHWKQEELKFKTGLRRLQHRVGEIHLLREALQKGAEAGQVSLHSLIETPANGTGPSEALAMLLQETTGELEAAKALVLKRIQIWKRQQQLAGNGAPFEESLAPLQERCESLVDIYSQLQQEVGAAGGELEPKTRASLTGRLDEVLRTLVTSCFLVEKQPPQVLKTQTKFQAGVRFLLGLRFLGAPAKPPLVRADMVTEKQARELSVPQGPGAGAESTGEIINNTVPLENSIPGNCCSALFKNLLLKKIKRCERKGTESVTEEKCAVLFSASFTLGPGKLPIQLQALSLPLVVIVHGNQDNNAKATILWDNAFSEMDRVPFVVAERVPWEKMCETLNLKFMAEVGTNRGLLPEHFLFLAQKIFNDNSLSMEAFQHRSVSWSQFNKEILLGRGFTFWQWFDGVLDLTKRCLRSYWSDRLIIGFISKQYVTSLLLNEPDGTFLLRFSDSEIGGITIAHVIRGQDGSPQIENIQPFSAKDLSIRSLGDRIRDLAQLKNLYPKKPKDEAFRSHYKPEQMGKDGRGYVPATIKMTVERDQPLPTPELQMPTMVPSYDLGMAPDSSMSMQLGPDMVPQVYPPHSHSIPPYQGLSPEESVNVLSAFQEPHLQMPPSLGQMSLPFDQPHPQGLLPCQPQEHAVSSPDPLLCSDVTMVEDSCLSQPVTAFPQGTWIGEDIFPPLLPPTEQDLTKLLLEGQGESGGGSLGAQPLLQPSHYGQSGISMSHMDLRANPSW
Test: Immunoblotting (Western blot) analysis of STAT6 degradation efficiency of degraders in treated cells
Type: cell-based
Outline: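 Protein levels of STAT5 and STAT6 were assessed in cells cultured at 37 °C in 10% FBS medium after compound exposure, by quantitative fluorescent Western blotting normalised to equal loading and referenced to GAPDH.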

[1] = L1236 cells, read-out: DC50 S6 L1236
[2] = MOLM-16 cells, class symbols, read-out: DC50 S6 MOLM-16

Compound	DC50 (read-out: DC50 S6 MB231, MB231 cells) [µM]	DC50 [1] [µM]	DC50 [2] [µM]
Cc1ncsc1-c1ccc(CNC(=O)[C@@H]2C[C@@H](O)CN2C(=O)[C@@H](NC(=O)CCCCCCCCNC(=O)CCN(C(=O)[C@@H]2CCCN2C(=O)[C@@H](NC(=O)c2cc3cc(C(F)(F)P(=O)(O)O)ccc3s2)C(C)(C)C)c2ccc(Br)cc2)C(C)(C)C)cc1 [Compound 397] ({Benzothienyl2CO(5-CF2PO3H2)}-[Tle]P[βAla(N-(4-Br-phenyl))][NH(CH2)8CO][Tle][Hyp]-{NHBn(4-(4-Me-thiazol-5-yl))})	> 10	–	–
Cc1ncsc1-c1ccc([C@H](C)NC(=O)[C@@H]2C[C@@H](O)CN2C(=O)[C@@H](NC(=O)CCCNC(=O)CC(=O)N2CCN(C(=O)[C@@H](NC(=O)c3cc4cc(C(F)(F)P(=O)(O)O)ccc4s3)C(C)(C)C)[C@H](C(=O)N3CCO[C@H](c4ccccc4)C3)C2)C(C)(C)C)cc1 [Compound 445, (difluoro(2-(((S)-1-((S)-4-(3-((4-(((S)-1-((2S,4R)-4-hydroxy-2-(((S)-1-(4-(4-methylthiazol-5-yl)phenyl)ethyl)carbamoyl)pyrrolidin-1-yl)-3,3-dimethyl-1-oxobutan-2-yl)amino)-4-oxobutyl)amino)-3-oxopropanoyl)-2-((R)-2-phenylmorpholine-4-carbonyl)piperazin-1-yl)-3,3-dimethyl-1-oxobutan-2-yl)carbamoyl)benzo[b]thiophen-5-yl)methyl)phosphonic acid]	–	> 10	> 10
CC(C)(C)[C@H](NC(=O)c1cc2cc(C(F)(F)P(=O)(O)O)ccc2s1)C(=O)N1C[C@@H](OCC(=O)NCCCC#Cc2cccc3c2C(=O)N(C2CCC(=O)NC2=O)C3=O)C[C@H]1C(=O)N1CCC[C@H](c2ccccc2)C1 (stereo partly drawn) [Compound 497, ((2-(((2S)-1-((2S,4S)-4-(2-((5-(2-(2,6-dioxopiperidin-3-yl)-1,3-dioxoisoindolin-4-yl)pent-4-yn-1-yl)amino)-2-oxoethoxy)-2-((R)-3-phenylpiperidine-1-carbonyl)pyrrolidin-1-yl)-3,3-dimethyl-1-oxobutan-2-yl)carbamoyl)benzo[b]thiophen-5-yl)difluoromethyl)phosphonic acid]	–	–	> 10
CC(C)(C)[C@H](NC(=O)c1cc2cc(C(F)(F)P(=O)(O)O)ccc2s1)C(=O)N1CCN(C(=O)CC(=O)NCC#Cc2ccc3c(c2)C(=O)N(C2CCC(=O)NC2=O)C3=O)C[C@H]1C(=O)N1CCC[C@H](c2ccccc2)C1 (stereo partly drawn) [Compound 522, ((2-(((2S)-1-((2S)-4-(3-((3-(2-(2,6-dioxopiperidin-3-yl)-1,3-dioxoisoindolin-5-yl)prop-2-yn-1-yl)amino)-3-oxopropanoyl)-2-((R)-3-phenylpiperidine-1-carbonyl)piperazin-1-yl)-3,3-dimethyl-1-oxobutan-2-yl)carbamoyl)benzo[b]thiophen-5-yl)difluoromethyl)phosphonic acid]	–	–	> 10
Cc1ncsc1-c1ccc([C@H](C)NC(=O)[C@@H]2C[C@@H](O)CN2C(=O)[C@@H](NC(=O)CCCCCNC(=O)COc2ccc3c(c2)CN(C(=O)[C@@H](NC(=O)c2cc4cc(C(F)(F)P(=O)(O)O)ccc4s2)C(C)(C)C)[C@H](C(=O)N2CCC[C@H](c4ccccc4)C2)C3)C(C)(C)C)cc1 [Compound 474, (difluoro(2-(((S)-1-((S)-7-(2-((6-(((S)-1-((2S,4R)-4-hydroxy-2-(((S)-1-(4-(4-methylthiazol-5-yl)phenyl)ethyl)carbamoyl)pyrrolidin-1-yl)-3,3-dimethyl-1-oxobutan-2-yl)amino)-6-oxohexyl)amino)-2-oxoethoxy)-3-((R)-3-phenylpiperidine-1-carbonyl)-3,4-dihydroisoquinolin-2(1H)-yl)-3,3-dimethyl-1-oxobutan-2-yl)carbamoyl)benzo[b]thiophen-5-yl)methyl)phosphonic acid]	–	–	> 10
Cc1ncsc1-c1ccc([C@H](C)NC(=O)[C@@H]2C[C@@H](O)CN2C(=O)[C@@H](NC(=O)CCCCCCCCNC(=O)CO[C@H]2C[C@@H](C(=O)N3CCO[C@H](c4ccccc4)C3)N(C(=O)[C@@H](NC(=O)c3cc4cc(C(F)(F)P(=O)(O)O)ccc4s3)C(C)(C)C)C2)C(C)(C)C)cc1 [Compound 432, (difluoro(2-(((S)-1-((2S,4S)-4-(2-((9-(((S)-1-((2S,4R)-4-hydroxy-2-(((S)-1-(4-(4-methylthiazol-5-yl)phenyl)ethyl)carbamoyl)pyrrolidin-1-yl)-3,3-dimethyl-1-oxobutan-2-yl)amino)-9-oxononyl)amino)-2-oxoethoxy)-2-((R)-2-phenylmorpholine-4-carbonyl)pyrrolidin-1-yl)-3,3-dimethyl-1-oxobutan-2-yl)carbamoyl)benzo[b]thiophen-5-yl)methyl)phosphonic acid]	–	> 10	> 10
CC(C)(C)[C@H](NC(=O)c1cc2cc(C(F)(F)P(=O)(O)O)ccc2s1)C(=O)N1C[C@@H](OCC(=O)NCC#Cc2cccc3c2C(=O)N(C2CCC(=O)NC2=O)C3=O)C[C@H]1C(=O)N1CCC[C@H](c2ccccc2)C1 (stereo partly drawn) [Compound 493, ((2-(((2S)-1-((2S,4S)-4-(2-((3-(2-(2,6-dioxopiperidin-3-yl)-1,3-dioxoisoindolin-4-yl)prop-2-yn-1-yl)amino)-2-oxoethoxy)-2-((R)-3-phenylpiperidine-1-carbonyl)pyrrolidin-1-yl)-3,3-dimethyl-1-oxobutan-2-yl)carbamoyl)benzo[b]thiophen-5-yl)difluoromethyl)phosphonic acid]	–	–	> 10
O=C1CCC(N2Cc3c(C#CCCCCCC(=O)N4CC[C@H]5CC[C@@H](C(=O)N6CCOC(c7ccc(F)c(Cl)c7)C6)N5C(=O)[C@@H](NC(=O)c5cc6cc(C(F)(F)P(=O)(O)O)ccc6s5)C4)cccc3C2=O)C(=O)N1 (stereo partly drawn) [Compound 564, ((2-(((5S,8S,10aR)-8-(2-(3-chloro-4-fluorophenyl)morpholine-4-carbonyl)-3-(8-(2-(2,6-dioxopiperidin-3-yl)-1-oxoisoindolin-4-yl)oct-7-ynoyl)-6-oxodecahydropyrrolo[1,2-a][1,5]diazocin-5-yl)carbamoyl)benzo[b]thiophen-5-yl)difluoromethyl)phosphonic acid]	–	> 10	> 10
Cc1ncsc1-c1ccc([C@H](C)NC(=O)[C@@H]2C[C@@H](O)CN2C(=O)[C@@H](NC(=O)CCCCCCCNC(=O)CO[C@H]2C[C@@H](C(=O)N3CCO[C@H](c4ccccc4)C3)N(C(=O)[C@@H](NC(=O)c3cc4cc(C(F)(F)P(=O)(O)O)ccc4s3)C(C)(C)C)C2)C(C)(C)C)cc1 [Compound 431, (difluoro(2-(((S)-1-((2S,4S)-4-(2-((8-(((S)-1-((2S,4R)-4-hydroxy-2-(((S)-1-(4-(4-methylthiazol-5-yl)phenyl)ethyl)carbamoyl)pyrrolidin-1-yl)-3,3-dimethyl-1-oxobutan-2-yl)amino)-8-oxooctyl)amino)-2-oxoethoxy)-2-((R)-2-phenylmorpholine-4-carbonyl)pyrrolidin-1-yl)-3,3-dimethyl-1-oxobutan-2-yl)carbamoyl)benzo[b]thiophen-5-yl)methyl)phosphonic acid]	–	> 10	> 10
CC(C)(C)[C@H](NC(=O)c1cc2cc(C(F)(F)P(=O)(O)O)ccc2s1)C(=O)N1C[C@@H](OCCCCCCC#Cc2cccc3c2CN(C2CCC(=O)NC2=O)C3=O)C[C@H]1C(=O)N1CCS(=O)(=O)C(c2ccccc2)C1 (stereo partly drawn) [Compound 607, ((2-(((2S)-1-((2S,4S)-2-(1,1-dioxido-2-phenylthiomorpholine-4-carbonyl)-4-((8-(2-(2,6-dioxopiperidin-3-yl)-1-oxoisoindolin-4-yl)oct-7-yn-1-yl)oxy)pyrrolidin-1-yl)-3,3-dimethyl-1-oxobutan-2-yl)carbamoyl)benzo[b]thiophen-5-yl)difluoromethyl)phosphonic acid]	–	–	< 0.1
